Here are results for eight molecules from ChEMBL document CHEMBL4130418, “From dual binding site acetylcholinesterase inhibitors to allosteric modulators: A new avenue for disease-modifying drugs in Alzheimer's disease” (Eur J Med Chem, 2017).

The target in data set [1] is T1, Acetylcholinesterase (Homo sapiens, UniProt P22303). The data set is described as follows: Inhibition of human AChE using acetylthiocholine iodide as substrate preincubated for 5 mins followed by substrate addition measured over 5 mins by UV-Vis spectrophotometric analysis.
The next data set has as its target Cholinesterase (Homo sapiens, UniProt P06276). The experiment in a line: Inhibition of human serum BuChE using butyrylthiocholine iodide as substrate preincubated for 5 mins followed by substrate addition measured over 5 mins by UV-Vis spectrophotometric analysis.
The target of data set [2] is T1, Acetylcholinesterase. The experiment in a line: Mixed-type inhibition of human AChE using acetylthiocholine iodide as substrate preincubated for 5 mins followed by substrate addition measured over 5 mins by Lineweaver-Burk plot analysis.
The target of data set [3] is Acetylcholinesterase (Electrophorus electricus) (UniProt O42275). The data set is described as follows: Binding affinity to electric eel AChE in presence of 80 to 1216 uM donepezil by STD NMR spectroscopy method.
The target of data set [4] is T1, Acetylcholinesterase. The experiment in a line: Noncompetitive inhibition of human AChE using acetylthiocholine iodide as substrate preincubated for 5 mins followed by substrate addition measured over 5 mins by Lineweaver-Burk plot analysis.
In data set [5] the test system is SH-SY5Y. The data set is described as follows: Cytotoxicity against human SH-SY5Y cells assessed as reduction in cell viability at 0.056 uM after 24 hrs by XTT assay. Format: cell-based. (Formazan colour is commonly taken as a measure of viable cells.)
Data set [6] relates to HepG2. The data set is described as follows: Cytotoxicity against human HepG2 cells assessed as reduction in cell viability at 0.0035 to 0.224 uM after 24 hrs by XTT assay. The note with it: hepg2, 24 h. Format: cell-based.
Data set [7] has as its system SH-SY5Y. The data set is described as follows: Cytoprotection against amyloid beta (1 to 42) peptide induced cell death in human SH-SY5Y cells assessed as increase in clonogenic survival after 24 hrs by Giemsa staining-based inverted microscopic analysis. It counts as functional. The note with it: read-out: MEC.
Data set [8] relates to SH-SY5Y. The experiment in a line: Induction of neuronal differentiation in human SH-SY5Y cells assessed as extensive neurites formation at 0.014 uM followed by culture medium replacement for every three days for 10 days by inverted-phase microscopic analysis. Format: functional, cell-based.
Data set [9] deals with SH-SY5Y. The experiment in a line: Induction of neuronal differentiation in human SH-SY5Y cells assessed as decrease in cell proliferation at 0.014 uM followed by culture medium replacement for every three days for 10 days by inverted-phase microscopic analysis. Format: functional, cell-based.
Data set [10] relates to SH-SY5Y. The data set is described as follows: Induction of neuronal differentiation in human SH-SY5Y cells assessed as neurite bearing cells at 0.014 uM followed by culture medium replacement for every three days for 10 days by inverted-phase microscopic analysis relative to control. It counts as functional.
Data set [11] concerns the target Acetylcholinesterase (Electrophorus electricus) (UniProt O42275). The data set is described as follows: Binding affinity to electric eel AChE in presence fixed dose of donepezil by STD NMR spectroscopy method.
Data set [12] relates to SH-SY5Y. The experiment in a line: Cytotoxicity against human SH-SY5Y cells assessed as reduction in cell viability at 2.84 uM after 24 hrs by XTT assay. It counts as cell-based.
In data set [13] the test system is HepG2. The experiment in a line: Cytotoxicity against human HepG2 cells assessed as reduction in cell viability at 2.84 to 5.68 uM after 24 hrs by XTT assay. It counts as cell-based. The note with it: hepg2, 24 h.
In data set [14] the test system is SH-SY5Y. The experiment in a line: Induction of neuronal differentiation in human SH-SY5Y cells assessed as extensive neurites formation at 0.13 uM followed by culture medium replacement for every three days for 10 days by inverted-phase microscopic analysis. Format: functional, cell-based.
For data set [15], the system named is SH-SY5Y. The experiment in a line: Induction of neuronal differentiation in human SH-SY5Y cells assessed as decrease in cell proliferation at 0.13 uM followed by culture medium replacement for every three days for 10 days by inverted-phase microscopic analysis. It counts as functional, cell-based.
The test system of data set [16] is SH-SY5Y. The experiment in a line: Induction of neuronal differentiation in human SH-SY5Y cells assessed as neurite bearing cells at 0.13 uM followed by culture medium replacement for every three days for 10 days by inverted-phase microscopic analysis relative to control. It counts as functional.

SMILES strings stand for the structures. Active and inactive are the calls of the source. No cut-off for these calls is given here.

T1 sequence (P22303 whole entry): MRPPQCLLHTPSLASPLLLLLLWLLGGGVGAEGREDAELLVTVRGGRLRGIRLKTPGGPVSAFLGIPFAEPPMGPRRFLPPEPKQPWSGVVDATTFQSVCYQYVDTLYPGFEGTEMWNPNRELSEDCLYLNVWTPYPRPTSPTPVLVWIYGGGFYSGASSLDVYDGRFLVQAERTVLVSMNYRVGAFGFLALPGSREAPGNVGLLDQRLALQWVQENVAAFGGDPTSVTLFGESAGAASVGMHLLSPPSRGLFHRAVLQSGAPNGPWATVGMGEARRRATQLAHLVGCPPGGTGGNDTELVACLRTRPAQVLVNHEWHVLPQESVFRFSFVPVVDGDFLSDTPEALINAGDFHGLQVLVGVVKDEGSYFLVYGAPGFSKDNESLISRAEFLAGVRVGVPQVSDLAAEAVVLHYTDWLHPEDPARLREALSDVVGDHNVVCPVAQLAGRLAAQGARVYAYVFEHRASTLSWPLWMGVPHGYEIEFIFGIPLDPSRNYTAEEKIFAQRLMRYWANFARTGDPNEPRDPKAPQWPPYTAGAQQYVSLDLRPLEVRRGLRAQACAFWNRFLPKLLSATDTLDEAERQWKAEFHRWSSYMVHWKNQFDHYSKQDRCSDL
Sequence of Acetylcholinesterase (Electrophorus electricus) (O42275 24-633 limits assumed): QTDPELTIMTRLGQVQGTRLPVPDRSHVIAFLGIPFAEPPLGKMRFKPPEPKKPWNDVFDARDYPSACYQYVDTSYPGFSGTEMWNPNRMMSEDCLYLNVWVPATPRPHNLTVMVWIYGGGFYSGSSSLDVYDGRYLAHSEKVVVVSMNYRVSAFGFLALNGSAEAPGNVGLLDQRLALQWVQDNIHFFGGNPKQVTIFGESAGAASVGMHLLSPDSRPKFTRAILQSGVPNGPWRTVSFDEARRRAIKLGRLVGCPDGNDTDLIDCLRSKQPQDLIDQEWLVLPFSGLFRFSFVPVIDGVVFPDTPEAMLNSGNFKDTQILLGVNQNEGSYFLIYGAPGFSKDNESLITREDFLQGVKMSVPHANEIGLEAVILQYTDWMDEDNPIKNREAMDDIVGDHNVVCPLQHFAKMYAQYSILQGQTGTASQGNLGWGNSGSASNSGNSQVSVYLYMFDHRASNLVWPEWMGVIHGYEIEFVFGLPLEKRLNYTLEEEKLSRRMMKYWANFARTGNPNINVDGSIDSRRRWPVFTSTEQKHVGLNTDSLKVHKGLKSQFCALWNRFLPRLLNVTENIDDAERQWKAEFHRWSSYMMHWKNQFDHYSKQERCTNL
Sequence of Cholinesterase (P06276 whole entry): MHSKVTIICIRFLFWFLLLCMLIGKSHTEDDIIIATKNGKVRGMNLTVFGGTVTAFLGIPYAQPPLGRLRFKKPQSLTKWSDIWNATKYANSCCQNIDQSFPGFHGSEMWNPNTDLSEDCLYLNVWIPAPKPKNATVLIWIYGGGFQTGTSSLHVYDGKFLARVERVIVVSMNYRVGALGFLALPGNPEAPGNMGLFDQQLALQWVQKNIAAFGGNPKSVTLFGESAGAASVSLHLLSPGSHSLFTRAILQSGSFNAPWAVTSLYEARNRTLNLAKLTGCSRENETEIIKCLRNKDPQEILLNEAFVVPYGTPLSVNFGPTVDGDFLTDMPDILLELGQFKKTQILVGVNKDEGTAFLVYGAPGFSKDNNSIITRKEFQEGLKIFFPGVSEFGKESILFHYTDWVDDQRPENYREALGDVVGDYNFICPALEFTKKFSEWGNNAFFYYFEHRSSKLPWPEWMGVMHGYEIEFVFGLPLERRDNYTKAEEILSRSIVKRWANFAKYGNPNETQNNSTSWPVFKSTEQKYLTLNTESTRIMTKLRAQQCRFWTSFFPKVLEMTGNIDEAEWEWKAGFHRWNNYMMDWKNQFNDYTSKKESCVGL

For the molecule `COc1cc2c(cc1OC)C(=O)/C(=C/C1CCN(Cc3cc(N=[N+]=[N-])c4ccccc4n3)CC1)C2`, the results for the IC50 against Acetylcholinesterase [1] and on Cholinesterase were 4.88 µM and more than 10 µM, respectively. Besides, the inhibition entry at Acetylcholinesterase [2] is “Active”. Besides, in data set [3], the outcome was inactive.
With `COc1cc2c(cc1OC)C(=O)C(CC1CCN(Cc3cc(Cl)c4ccccc4n3)CC1)C2` (stereo not drawn), the values for the IC50 on Acetylcholinesterase [1] and against Cholinesterase were more than 10 µM and 5.99 µM, respectively.
On the same counts, the results for `COc1cc2c(cc1OC)C(=O)/C(=C/C1CCN(Cc3cc(Cl)c4ccccc4n3)CC1)C2` are more than 10 µM and more than 10 µM.
The corresponding values for `OCC1CCN(Cc2cc(Cl)c3ccccc3n2)CC1` are more than 10 µM and more than 10 µM.
On the same counts, the results for `[N-]=[N+]=Nc1cc(CN2CCC(C=O)CC2)nc2ccccc12` are more than 10 µM and more than 10 µM.
Regarding `COc1cc2c(cc1OC)C(=O)/C(=C/C1CCN(Cc3cc(N)c4ccccc4n3)CC1)C2`, the IC50 amounted to 0.014 µM on Acetylcholinesterase [1] and 3.69 µM on Cholinesterase. In addition, the inhibition entry at Acetylcholinesterase [4] was “Active”. For the same molecule, the Activity result with SH-SY5Y [5] was “Toxic”; in the data set on HepG2 [6], “Non-Toxic”; in the data set with SH-SY5Y [10], 55%. For the same molecule, in the data set on SH-SY5Y [7], the minimal effective concentration stood at 0.0035 µM. The outcome (in the data set with SH-SY5Y [8]; with SH-SY5Y [9]; in data set [3]; in [11]) was Active.
`O=CC1CCN(Cc2cc(Cl)c3ccccc3n2)CC1`: the half-maximal inhibitory concentration (IC50) against Acetylcholinesterase [1] and against Cholinesterase was more than 10 µM throughout.
For the molecule `COc1cc2c(cc1OC)C(=O)C(CC1CCN(Cc3cc(N)c4ccccc4n3)CC1)C2` (stereo not drawn), the IC50 turned out to be 0.71 µM against Acetylcholinesterase [1] and 6.54 µM against Cholinesterase. Besides, the Activity entry is listed as “Toxic” with SH-SY5Y [12], “Non-Toxic” in the data set with HepG2 [13] and 43% with SH-SY5Y [16]. For the same molecule, the minimal effective concentration in the data set on SH-SY5Y [7] worked out at 0.088 µM. The outcome in the data set with SH-SY5Y [14] and with SH-SY5Y [15] was Active.

The IC50 is the point on the concentration scale where inhibition reaches its midpoint.
